Consider four compounds from ChEMBL document CHEMBL3045758, “Quantitative Structure-Activity Relationships of Fungicidal N-Phenylformamidoximes” (J Pestic Sci, 1992).

Molecules are shown by their SMILES. A value given as a limit tells only on which side of the number the result lay.

The nature of data set [1]: 1-octanol/water distribution coefficient, log P of the compound. Format: physicochemical.
For data set [2], the system named is Phaseolus vulgaris. As to the kind of experiment: Phytotoxicity against Phaseolus vulgaris (kidney bean) assessed as necrosis of leaf at 100 ppm after 7 days in greenhouse conditions. It counts as organism-based. As to conditions: in vivo, 168 h.
The subject of data set [3] is Botrytis cinerea. As to the kind of experiment: Fungicidal activity against benzimidazole-resistant Botryotinia fuckeliana infected kidney bean leaf at 100 ppm after 7 days in greenhouse conditions by detached leaf test. Format: functional.
The subject of data set [4] is Botrytis cinerea. As to the kind of experiment: Fungicidal activity against benzimidazole-resistant Botryotinia fuckeliana at 6.2 ppm after 48 hr by poisoned food technique. Format: functional.
In data set [5] the test system is Botrytis cinerea. As to the kind of experiment: Fungicidal activity against benzimidazole-resistant Botryotinia fuckeliana at 200 ppm after 48 hr by poisoned food technique. It counts as functional.
Data set [6] relates to Botrytis cinerea. As to the kind of experiment: Fungicidal activity against benzimidazole-resistant Botryotinia fuckeliana after 48 hr by poisoned food technique. It counts as functional, organism-based.
For data set [7], the system named is Botrytis cinerea. As to the kind of experiment: Fungicidal activity against benzimidazole-resistant Botryotinia fuckeliana at 25 ppm after 48 hr by poisoned food technique. It counts as functional.
For data set [8], the system named is Botrytis cinerea. In words: Fungicidal activity against benzimidazole-sensitive Botryotinia fuckeliana after 48 hr by poisoned food technique. Format: functional, organism-based.
In data set [9] the test system is Botrytis cinerea. As to the kind of experiment: Resistance ratio of EC50 for benzimidazole-resistant Botryotinia fuckeliana to EC50 for benzimidazole-sensitive Botryotinia fuckeliana. It counts as functional.
For data set [10], the system named is Botrytis cinerea. As to the kind of experiment: Ratio of DMPF EC50 to compound EC50 for benzimidazole-resistant Botryotinia fuckeliana. It counts as functional.
Setting [11] is: Botrytis cinerea, 48 h, read-out: pEC50 (converted).

Consider `CCO/N=C/Nc1cc(Cl)cc(Cl)c1`, for which the logP (as a rule, a log measure of how a compound divides between an organic and an aqueous phase) in [1] is 3. The Activity result in [2] is on record as “<= 10%”; in data set [3] it was under 25%; in data set [4], under 25%; in data set [5], 100%; in data set [7] it was 26%. In data set [6] (setting [11]), the EC50 was 12 µM.
Turning to `CO/N=C/Nc1cc(Cl)cc(Cl)c1`, the EC50 in data set [6] is 3 ppm; in data set [8], 50 ppm. In data set [9], the “Ratio EC50” value came to 10000.
Take `C#CCc1c(Cl)cc(N/C=N/OC)cc1Cl`: the logP in data set [1] came to 3.3. Besides, in data set [2], the Activity result is on record as “Non-toxic”. Besides, the EC50 in data set [6] was 0.005 ppm; in data set [6] (setting [11]), 0.0182 µM; in [8], 30 ppm. In addition, the “Ratio EC50” value in data set [9] worked out at 10; in [10], 600.
With `CCO/N=C/Nc1cc(Cl)ccc1OCC` [N-(5-CHLORO-2-ETHOXYPHENYL)-N'-ETHOXYFORMIMIDAMIDE], the Activity result is “<= 10%” in data set [2]; under 25% in data set [3]; under 25% in data set [4]; 100% in data set [5]; 100% in [7].
